Entries after “also recorded” stand apart in the source; their conditions may differ.
What was measured:
[1] = system: CD4+ T cells; assay: Clinical cellular immune detection (10-day enrichment), CD4+ T cells re-stimulated with HBV-specific peptides; assay type: in vivo, human
Description: (§1) 7) Cell seeding and peptide stimulation. PBMC was re-suspended with 10% FBS-RPMI-1640 and seeded into 12-well plate with 1mL/well. Specific peptides were added at the same time with 1 μL per well. The plate was then incubated in 5% CO2, 37° C.
(§2) After five days incubation, 50 μL sample was taken from each well and stored at −80° C. Then added 500 ul 10% FBS-RPMI-1640 contained […], continued for another five days incubator.
(§3) 2) Stimulation. After 10 days enrichment, the cells in 12-well plate were transferred into a 1.5 mL EP tube. Centrifuge with 1500 rpm, 3 min. Discard supernatant and re-suspend with FBS-RPMI-1640 prepared in step 1. The suspended cells were then seeded into a 96-well plate, the plate was coated with PMA, N, CMV, S4, S8 and MIX, 90 uL/well with three repetitions. Then the plate was incubated in 5% CO2, 37° C. for 8 hours.
(§4) 3) Storage. After 8 hours incubation, the 96-well plate was set for centrifuge with 1500 rpm, 3 min. Discard supernatant and re-suspend with 200 μL cell freezing medium (10% DMSO with 90% FBS). Disassociation by pipetting 3 to 5 times and sealed with parafilm. And then set for gradient cryopreservation with 4° C. for 1 hour, at −20° C. for 40 min and at −80° C. thereafter.
(§5) 3) Cell surface marker staining Panel 1, CD4-APC; Panel 2, CD8-APC; Panel 3, CD4-FITC. The dose of antibody was as the recommended dose in the reagent manual. Plate was centrifuged with 1500 rpm, 3 min. Discard supernatant and re-suspend with staining buffer in 4° C. for 30 min.
6) Intracellular staining. Panel 1/Panel 2, IFN-g-PE, TNF-α-BV421, IL-17-APC/cy7, IL-2-FITC; Panel 3, FOXP3-APC, IL-4-BV421, IL-10-PE. The dose of antibody was at the recommended dose in the reagent manual. Re-suspend the cells with staining buffer in room temperature for 1.5 hour with shake.
8) FACS detection. The detection was conducted with BD LSR Fortessa (BD Bioscience, USA). The voltage and compensation may be well adjusted. The result data was analyzed with FlowJo v7.6.3, and the results were shown as positive percentage.
Antigen specific cellular immunity may play an important role in chronic HBV treatment. […] Peripheral Blood mononuclear cells (PBMC) were isolated and re-stimulated with HBV-specific polypeptide for 10-day enrichment. After the cell was collected and re-stimulated by HBV-specific polypeptide for 8 hours, the levels of cytokines in CD4+ and CD8^+ T lymphocytes were detected by flow cytometry. IL-2, IL-4, IL-10, IL-17a, Foxp3, IFN-γ and TNF-α were analyzed in CD4^+ T cells, whereas IL-2, IL-17a, IFN-γ and TNF-α were analyzed in CD8^+ T lymphocyte.

[2] = system: CD8+ T cells; assay: Clinical cellular immune detection (10-day enrichment), CD8+ T cells re-stimulated with HBV-specific peptides; assay type: in vivo, human
Description: as §1, §2, §3, §4, §5
6) Intracellular staining. […]
8) FACS detection. […] The result data was analyzed with FlowJo v7.6.3, and the results were shown as positive percentage.
Antigen specific cellular immunity may play an important role in chronic HBV treatment. […] After the cell was collected and re-stimulated by HBV-specific polypeptide for 8 hours, the levels of cytokines in CD4+ and CD8^+ T lymphocytes were detected by flow cytometry. IL-2, IL-4, IL-10, IL-17a, Foxp3, IFN-γ and TNF-α were analyzed in CD4^+ T cells, whereas IL-2, IL-17a, IFN-γ and TNF-α were analyzed in CD8^+ T lymphocyte.

[3] = Clinical trial ChiCTR-TRC-13003254: serum ALT kinetics; assay type: in vivo, human; conditions: 48-week treatment and 72-week follow-up
Description: HBV DNA was not detected or the level decreased at least 2 log 10 IU/mL compared with the basement on weeks 12, 24, 36, 48 and 72; The AST and ALT level on weeks 12, 24, 36, 48 and 72; The histological response, with the inflammation and fibrosis should rate under level 1 of the liver on week 48.
Routine biochemistry (liver function, renal function); Blood cell analysis; Serum HBV DNA detection; HBVM detection; All the detection were conducted in the central laboratory of Huashan Hospital.

[4] = system: T cell subsets (Th1, Th2, Th17, Treg, Tc1, Tc17); assay: T-lymphocyte subset proportions and subset ratios during treatment; assay type: in vivo, human
Text: From the previous results, a T cell responds heterogeneously. In order to intuitively understand the dynamic changes of different T cell subsets, IFN-γ^+ CD4^+ T cells were assigned into the Th1, IL-4^+ CD4^+ T cells as TH2, IL-17a producing CD4^+ T cells as TH17, Foxp3^+CD4^+ T cells Treg, and the CD8^+ T cells secreting different cytokines were classified as TC1 and […] by the same method.
In order to further obtain the effect of different therapies on cellular immunity, the TH1/Treg, Th2/Treg, Th17/Treg, and Th1/th2 was analyzed and plotted.

[5] = system: HBsAg; conditions: after five years of treatment; HBeAg positive CHB patients; cited from earlier work
[6] = 0 to 72 weeks, significant changes at 24th week

Row | SMILES | Foxp3 expression in CD4+ T cells (Treg), dynamics [1, 6] | IL-10 secretion in CD4+ T cells, dynamics [1, 6] | Foxp3 expression in CD4+ T cells (Treg), dynamics ([1]; 0 to 72 weeks, significant changes at 24th week, listed as Adv) | IL-4 in CD4+ T cells, dynamics ([1]; S-polypeptide pool stimulation) | IFN-γ expression in CD4+ T cells, dynamics ([1]; S-polypeptide pool stimulation, 0 to 72 weeks) | IL-2 and TNF-α in CD4+ T cells, dynamics ([1]; S-polypeptide pool stimulation, course of treatment) | IL-17A in CD4+ T cells, dynamics ([1]; peptide pool stimulation, course of treatment) | IFN-γ secreted by CD8+ T cells, dynamics ([2]; HLA-A2+ or HLA-A2− S polypeptide re-stimulation, 0 to 72 weeks) | IL-17A of CD8+ T cells, dynamics ([2]; S polypeptide pool stimulation) | IL-2 and TNF-α secreted by CD8+ T cells, dynamics ([2]; S polypeptide re-stimulation, course of treatment) | ALT level, change [3] | change of TH1, TH2, TH17, TC1 and Tc17 cell proportions ([4]; 0 weeks to 72 weeks) | proportion of Treg cells in total T cell subsets ([4]; 48 weeks) | proportion of Treg cells in total T cell subsets ([4]; 72 weeks, follow-up endpoint) | proportion of Treg cells in total T cell subsets ([4]; baseline) | patients with HBsAg serotype transformed [5]
1 | CC(C)(C)C(=O)OCOP(=O)(COCCn1cnc2c(N)ncnc21)OCOC(=O)C(C)(C)C [ADV, Adefovir Dipivoxil] | not significantly changed; also recorded: no significant fluctuation; also recorded: did not show significant fluctuation | no significant change | did not change significantly; also recorded: did not show significant fluctuation | no difference | no significant difference | no significant difference | no significant change | no difference | no significance | No significant difference | did not change significantly | no significant changes | 25.8% | 37.8% | 37.7% | –
2 | C[C@H](Cn1cnc2c(N)ncnc21)OCP(=O)(O)O [Tenofovir] | – | – | – | – | – | – | – | – | – | – | – | – | – | – | – | 23 of 266
